The results in this text go back to ChEMBL document CHEMBL1201862, “PubChem BioAssay data set” (2004).

Among the test systems are MDA-MB-231; T47D; M14; MOLT-4; A498; TK-10; MDA-N; K562; NCI-H460; OVCAR-4; SK-MEL-28; HOP-62; OVCAR-3; SW-620; SR; NCI-H23; KM12; HL-60; SF-539; DU-145.
Common to all, as to assay: NCI-60 cell line screen, 48 h

The structures appear in SMILES notation.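 Tested at 5 concentrations; 48 h exposure; 96-well plates; endpoints linearly interpolated, else capped at highest concentration. Here, GI50 denotes the concentration required for 50% inhibition of growth.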 The source made the active and inactive calls. Rule as the data show it: active = GI50 up to about 1.1 µM and inactive = higher. Bounds are passed on as bounds.

`N/C(S)=N/N=C/c1ncccc1O`: the GI50 was 4.29 µM (inactive) with MDA-MB-231; 3.14 µM (inactive) in the assay on T47D; 1.95 µM (inactive) with M14; 0.787 µM (active) in the assay with MOLT-4; 2.25 µM (inactive) in the assay with A498; 9.57 µM (inactive) in the assay on TK-10. The GI50 with MDA-N was 3.77 µM (inactive); with K562, 1.83 µM (inactive); in the assay with NCI-H460, 1.29 µM (inactive); in the assay with OVCAR-4, 2.96 µM (inactive); in the assay on SK-MEL-28, 4.29 µM (inactive); with HOP-62, 1.23 µM (inactive). Further, the GI50 in the assay on OVCAR-3 was 1.88 µM (inactive); in the assay with SW-620 it was 1.64 µM (inactive); in the assay on SR, 3.01 µM (inactive); with NCI-H23, 0.597 µM (active); in the assay with KM12, 2.6 µM (inactive).

On to `O=C(NCc1cccc2ccccc12)N/N=C\c1ccc(Cl)cc1`, for which the GI50 was > 100 µM (inactive) with T47D; > 100 µM (inactive) with HL-60; 74.5 µM (inactive) in the assay with M14; > 100 µM (inactive) with MOLT-4; > 100 µM (inactive) in the assay on SF-539; > 100 µM (inactive) in the assay with TK-10. Further, the GI50 with MDA-N is 9.82 µM (inactive); in the assay with K562, > 100 µM (inactive); with NCI-H460 it was 67 µM (inactive); in the assay on OVCAR-4 it was > 100 µM (inactive); in the assay on SK-MEL-28 it was > 100 µM (inactive); in the assay with HOP-62, > 100 µM (inactive). The GI50 is > 100 µM (inactive) in the assay on OVCAR-3; 88.3 µM (inactive) with SW-620; > 100 µM (inactive) with SR; > 100 µM (inactive) with NCI-H23; 49 µM (inactive) in the assay on KM12; > 100 µM (inactive) in the assay on DU-145.

Turning to `CC(C)C(C)C(O)C(O)C(C)C1CCC2C3COC(=O)C4CC(O)C(O)CC4(C)C3CCC12C` (configuration not stated), the GI50 in the assay on MDA-MB-231 was > 100 µM (inactive); in the assay on T47D, 40.9 µM (inactive); with HL-60, > 10 µM (inactive); with M14, > 100 µM (inactive); in the assay on MOLT-4 it was 27.1 µM (inactive); in the assay with A498, > 100 µM (inactive). Besides, the GI50 was > 100 µM (inactive) in the assay with SF-539; > 100 µM (inactive) in the assay with TK-10; 56 µM (inactive) in the assay with MDA-N; 39 µM (inactive) with K562; 57.9 µM (inactive) in the assay with NCI-H460; 59 µM (inactive) with OVCAR-4. The GI50 with SK-MEL-28 was > 100 µM (inactive); in the assay with SW-620, > 100 µM (inactive); in the assay on NCI-H23, 92.7 µM (inactive); in the assay on KM12, 50.2 µM (inactive); with DU-145 it was > 100 µM (inactive).

As for `O=C1OS2(OC(=O)c3cccc4cccc2c34)c2ccccc21` (configuration not stated), the GI50 in the assay with MDA-MB-231, with T47D, in the assay with HL-60, in the assay with M14, with MOLT-4 and in the assay on A498 was > 100 µM (inactive) each time. The GI50 in the assay on SF-539, in the assay with TK-10, in the assay with MDA-N, with K562, in the assay on OVCAR-4 and in the assay with SK-MEL-28 was > 100 µM (inactive) throughout. In addition, the GI50 in the assay on HOP-62, in the assay with OVCAR-3, in the assay with SW-620, with NCI-H23, in the assay with KM12 and in the assay on DU-145 was > 100 µM (inactive) throughout.

Turning to `O=c1oc2ccc3ccccc3c2cc1-c1nc2ccccc2s1`, the GI50 in the assay with MDA-MB-231 was > 100 µM (inactive); in the assay with T47D, > 66.7 µM (inactive); in the assay with HL-60 it was > 100 µM (inactive); with M14, > 100 µM (inactive); in the assay on A498, > 100 µM (inactive); with SF-539 it was > 100 µM (inactive). Moreover, the GI50 in the assay with TK-10 is > 100 µM (inactive); in the assay on MDA-N, > 100 µM (inactive); in the assay on K562, > 20.6 µM (inactive); in the assay on NCI-H460, > 100 µM (inactive); in the assay with OVCAR-4 it was > 100 µM (inactive); with SK-MEL-28, > 100 µM (inactive). The GI50 with HOP-62, in the assay on OVCAR-3, with SW-620, with NCI-H23, with KM12 and with DU-145 was > 100 µM (inactive) in each case.

For the molecule `Cc1cccc(C)c1NC(=S)NC=C(C(N)=O)C(N)=O`, the GI50 with MDA-MB-231, in the assay on T47D, with M14, with MOLT-4, in the assay with A498 and in the assay on SF-539 was > 100 µM (inactive) throughout. Also, the GI50 with TK-10, in the assay with MDA-N, in the assay on K562, in the assay on NCI-H460, in the assay on OVCAR-4 and in the assay on SK-MEL-28 was > 100 µM (inactive) throughout. The GI50 with HOP-62, with OVCAR-3, with SW-620, in the assay with NCI-H23, with KM12 and with DU-145 was > 100 µM (inactive) in each case.

Turning to `Cc1ccc(S(=O)(=O)NC(=O)NNc2ccc(F)cc2)cc1`, the GI50 in the assay on MDA-MB-231, in the assay on T47D, with HL-60, with M14, in the assay with MOLT-4 and in the assay with A498 was > 100 µM (inactive) each time. Also, the GI50 with SF-539, in the assay on TK-10, in the assay on MDA-N, in the assay with NCI-H460, with OVCAR-4 and in the assay on SK-MEL-28 was > 100 µM (inactive) throughout. Further, the GI50 is > 100 µM (inactive) with HOP-62; > 100 µM (inactive) in the assay with OVCAR-3; > 100 µM (inactive) in the assay on SW-620; > 10 µM (inactive) in the assay with NCI-H23; > 100 µM (inactive) in the assay on KM12; > 100 µM (inactive) in the assay with DU-145.

Consider `C=CCn1c2ccccc2[n+]2cc([N+](=O)[O-])ccc12`, for which the GI50 with MDA-MB-231 is 34.7 µM (inactive); in the assay with T47D it was 32.3 µM (inactive); in the assay on HL-60 it was 17.3 µM (inactive); in the assay with M14, 36.3 µM (inactive); in the assay with MOLT-4, 28.2 µM (inactive); with A498, 19.5 µM (inactive). The GI50 in the assay on SF-539 was 32.7 µM (inactive); in the assay on TK-10 it was 61.7 µM (inactive); in the assay on MDA-N, 23.9 µM (inactive); with K562 it was 13 µM (inactive); in the assay on OVCAR-4, 77.4 µM (inactive); in the assay with SK-MEL-28, 34.2 µM (inactive). The GI50 with HOP-62 was 54.3 µM (inactive); in the assay on OVCAR-3, 24.5 µM (inactive); in the assay on SW-620, 30.8 µM (inactive); with NCI-H23 it was 20 µM (inactive); with KM12 it was 40.1 µM (inactive); in the assay on DU-145, 50.9 µM (inactive).

With `Oc1ccc2c(c1)OCC1c3ccccc3OC21` (configuration not stated), the GI50 is 78 µM (inactive) with MDA-MB-231; > 100 µM (inactive) in the assay with T47D; 28.8 µM (inactive) in the assay on HL-60; 74 µM (inactive) with M14; 19.6 µM (inactive) in the assay on MOLT-4; > 100 µM (inactive) with A498. Also, the GI50 in the assay with SF-539 was > 100 µM (inactive); in the assay with TK-10 it was 87.7 µM (inactive); in the assay with MDA-N it was 35.6 µM (inactive); in the assay on K562, 41.2 µM (inactive); in the assay with NCI-H460 it was 41.6 µM (inactive); in the assay with OVCAR-4, 60.8 µM (inactive). Further, the GI50 in the assay on SK-MEL-28 is > 100 µM (inactive); in the assay on HOP-62, > 100 µM (inactive); in the assay with OVCAR-3, 59 µM (inactive); with SW-620 it was 63.5 µM (inactive); in the assay with NCI-H23, 44.9 µM (inactive); in the assay with KM12, 45.4 µM (inactive). Further, the GI50 with DU-145 was > 100 µM (inactive).

Turning to `Cc1c2cccc-2c2cc(O)c3ccccc3c2n1-c1ccc(N(C)C)cc1`, the GI50 in the assay with MDA-MB-231 is 3.01 µM (inactive); in the assay on T47D, 0.304 µM (active); in the assay with HL-60, 19.9 µM (inactive); in the assay with M14 it was 14.5 µM (inactive); with A498, 17.1 µM (inactive); in the assay with SF-539, 14.3 µM (inactive). Also, the GI50 with TK-10 is 13 µM (inactive); in the assay on MDA-N, 17 µM (inactive); with K562 it was 6.81 µM (inactive); in the assay on NCI-H460 it was 15.5 µM (inactive); with OVCAR-4, 3.37 µM (inactive); with SK-MEL-28, 17.2 µM (inactive). The GI50 in the assay with HOP-62 was 12.2 µM (inactive); with OVCAR-3 it was 6.46 µM (inactive); in the assay with SW-620, 20.7 µM (inactive); in the assay with SR, 4.63 µM (inactive); in the assay on NCI-H23 it was 4.28 µM (inactive); in the assay with KM12 it was 6.82 µM (inactive).

Take `CCCc1cc2c(cc1O)CC[C@@H]1[C@@H]2CC[C@]2(C)[C@@H](O)CC[C@@H]12`: the GI50 in the assay on MDA-MB-231 was 17.3 µM (inactive); in the assay with T47D, 10.6 µM (inactive); in the assay with HL-60 it was 12.6 µM (inactive); with M14, 10.5 µM (inactive); in the assay on MOLT-4, 5.6 µM (inactive); with A498, 17.9 µM (inactive). Besides, the GI50 in the assay on SF-539 was 10.8 µM (inactive); with TK-10, 16.2 µM (inactive); with MDA-N, 2.29 µM (inactive); in the assay on K562, 3.17 µM (inactive); in the assay on NCI-H460, 10.7 µM (inactive); in the assay with OVCAR-4, 17.7 µM (inactive). The GI50 is 13.1 µM (inactive) in the assay with SK-MEL-28; 11.8 µM (inactive) with OVCAR-3; 3.95 µM (inactive) in the assay on SW-620; 3.61 µM (inactive) in the assay on SR; 14.1 µM (inactive) with NCI-H23; 9.12 µM (inactive) with KM12.
